The target in one assay is T1, CAAX prenyl protease 2 (Saccharomyces cerevisiae S288c, UniProt Q03530).
T1 sequence (Q03530 whole entry): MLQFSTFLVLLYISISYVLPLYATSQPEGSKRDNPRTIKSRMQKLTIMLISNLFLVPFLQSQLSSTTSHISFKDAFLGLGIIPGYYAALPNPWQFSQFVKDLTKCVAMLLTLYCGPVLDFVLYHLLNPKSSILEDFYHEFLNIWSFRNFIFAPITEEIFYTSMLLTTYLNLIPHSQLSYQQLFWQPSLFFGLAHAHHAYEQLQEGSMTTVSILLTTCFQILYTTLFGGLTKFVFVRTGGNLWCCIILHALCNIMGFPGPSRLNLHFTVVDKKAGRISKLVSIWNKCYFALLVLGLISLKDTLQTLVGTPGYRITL
The assay is classed as biochemical.

Assay [1] can be described thus: HEK-293T cell viability reduction – luminescence, B-cell screen hits, cytotoxicity control for BCR NF-kB inhibitor project, dose response (AID 489021).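 Note: HEK-293T cells carrying an NF-kB luciferase reporter; cells exposed to compound for about 14 hours before viability readout.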 It counts as functional, cell-based.
Assay [2] in a line: luciferase reporter signal suppression in cells – H4 neuroglioma cells, luminescence, dose response (AID 1990). It counts as functional, cell-based. (In general: Reporter assays use an easily measured gene product as a stand-in for the process of interest.)
The nature of assay [3]: Luminescence Cell-Based Dose Response HTS to Identify Inhibitors of 5'UTR Stem-Loop Driven Prion Protein mRNA Translation in H4 Neuroglioblastoma Cells. [Related pubchem assays: 1827 (Project Summary), 1813 (Primary HTS)]. The assay is classed as functional.
A short description of assay [4]: alpha-synuclein stem-loop luciferase translation blockers – H4 neuroglioma cells, luminescence, confirmation (AID 1988). It counts as functional, cell-based.
Assay [5] deals with T2, Zinc finger protein mex-5 (Caenorhabditis elegans, UniProt Q9XUB2).
T2 sequence (Q9XUB2 whole entry): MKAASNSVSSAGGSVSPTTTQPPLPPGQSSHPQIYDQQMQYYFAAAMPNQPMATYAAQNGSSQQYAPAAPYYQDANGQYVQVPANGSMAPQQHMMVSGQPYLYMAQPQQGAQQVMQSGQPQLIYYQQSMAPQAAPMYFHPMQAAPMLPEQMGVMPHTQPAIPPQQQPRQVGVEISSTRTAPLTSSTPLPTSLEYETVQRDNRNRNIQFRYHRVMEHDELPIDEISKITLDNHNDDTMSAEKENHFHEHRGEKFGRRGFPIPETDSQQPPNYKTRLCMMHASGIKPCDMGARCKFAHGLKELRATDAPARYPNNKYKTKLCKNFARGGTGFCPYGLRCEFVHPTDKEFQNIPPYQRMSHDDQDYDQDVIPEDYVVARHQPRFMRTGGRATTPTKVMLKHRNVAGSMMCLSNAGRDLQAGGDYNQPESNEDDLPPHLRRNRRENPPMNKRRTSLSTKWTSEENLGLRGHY
The experiment in a line: potency of MEX-5 RNA-binding blockers – biochemical, C. elegans, fluorescence polarization, dose response (AID 1960). (In general: Fluorescence polarisation rises when a labelled molecule tumbles more slowly, as on binding a larger partner.)

In assay [6] the target is T3, RNA-binding protein pos-1 (Caenorhabditis elegans, UniProt G5EF15).
T3 sequence (G5EF15 whole entry): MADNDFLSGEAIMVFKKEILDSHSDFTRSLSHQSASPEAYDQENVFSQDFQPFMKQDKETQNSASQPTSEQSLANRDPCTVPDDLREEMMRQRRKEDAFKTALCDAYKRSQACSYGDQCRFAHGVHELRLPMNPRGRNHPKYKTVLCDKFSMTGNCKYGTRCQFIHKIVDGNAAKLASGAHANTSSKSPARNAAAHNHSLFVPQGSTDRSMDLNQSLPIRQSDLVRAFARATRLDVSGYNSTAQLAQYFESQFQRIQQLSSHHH
The experiment in a line: disruptors of C. elegans POS-1 RNA interaction – biochemical, fluorescence polarization, dose response (AID 1964).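 Note: purified POS-1 fused to maltose binding protein made in E. coli; potency of compounds blocking POS-1 binding to fluorescent RNA.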

The target of assay [7] is T4, Alkaline phosphatase, tissue-nonspecific isozyme (Homo sapiens, UniProt P05186).
T4 sequence (P05186 whole entry): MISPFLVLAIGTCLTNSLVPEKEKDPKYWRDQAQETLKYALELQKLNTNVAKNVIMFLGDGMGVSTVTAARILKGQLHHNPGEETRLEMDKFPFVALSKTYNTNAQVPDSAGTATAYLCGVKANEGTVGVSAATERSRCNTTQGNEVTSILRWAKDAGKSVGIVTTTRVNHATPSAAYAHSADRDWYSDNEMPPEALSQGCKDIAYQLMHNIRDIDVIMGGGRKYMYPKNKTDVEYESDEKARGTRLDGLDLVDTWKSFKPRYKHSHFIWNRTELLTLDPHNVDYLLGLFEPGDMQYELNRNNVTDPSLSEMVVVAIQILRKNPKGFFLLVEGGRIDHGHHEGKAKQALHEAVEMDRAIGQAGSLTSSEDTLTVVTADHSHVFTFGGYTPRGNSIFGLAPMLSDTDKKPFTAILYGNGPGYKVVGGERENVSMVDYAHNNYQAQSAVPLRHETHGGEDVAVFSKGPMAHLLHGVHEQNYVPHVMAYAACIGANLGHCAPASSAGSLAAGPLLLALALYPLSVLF
The experiment in a line: potency against alkaline phosphatase TNAP – biochemical, luminescent, dose response, SAR follow-up (AID 1056).

The target in assay [8] is Glyceraldehyde-3-phosphate dehydrogenase (Homo sapiens, UniProt P04406).
Chain of Glyceraldehyde-3-phosphate dehydrogenase (P04406 whole entry): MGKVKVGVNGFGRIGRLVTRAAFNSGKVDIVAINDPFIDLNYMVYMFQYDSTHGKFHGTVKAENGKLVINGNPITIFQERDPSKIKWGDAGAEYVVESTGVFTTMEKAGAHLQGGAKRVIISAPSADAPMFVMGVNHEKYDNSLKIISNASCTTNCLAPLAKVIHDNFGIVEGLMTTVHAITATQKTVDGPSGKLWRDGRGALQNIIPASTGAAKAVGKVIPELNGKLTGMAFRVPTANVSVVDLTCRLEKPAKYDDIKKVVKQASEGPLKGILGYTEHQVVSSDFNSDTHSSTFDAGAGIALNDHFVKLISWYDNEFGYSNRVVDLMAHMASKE
In a further assay the target is T5, ORF 73 (Human herpesvirus 8, UniProt O40947).
T5 sequence (O40947 whole entry): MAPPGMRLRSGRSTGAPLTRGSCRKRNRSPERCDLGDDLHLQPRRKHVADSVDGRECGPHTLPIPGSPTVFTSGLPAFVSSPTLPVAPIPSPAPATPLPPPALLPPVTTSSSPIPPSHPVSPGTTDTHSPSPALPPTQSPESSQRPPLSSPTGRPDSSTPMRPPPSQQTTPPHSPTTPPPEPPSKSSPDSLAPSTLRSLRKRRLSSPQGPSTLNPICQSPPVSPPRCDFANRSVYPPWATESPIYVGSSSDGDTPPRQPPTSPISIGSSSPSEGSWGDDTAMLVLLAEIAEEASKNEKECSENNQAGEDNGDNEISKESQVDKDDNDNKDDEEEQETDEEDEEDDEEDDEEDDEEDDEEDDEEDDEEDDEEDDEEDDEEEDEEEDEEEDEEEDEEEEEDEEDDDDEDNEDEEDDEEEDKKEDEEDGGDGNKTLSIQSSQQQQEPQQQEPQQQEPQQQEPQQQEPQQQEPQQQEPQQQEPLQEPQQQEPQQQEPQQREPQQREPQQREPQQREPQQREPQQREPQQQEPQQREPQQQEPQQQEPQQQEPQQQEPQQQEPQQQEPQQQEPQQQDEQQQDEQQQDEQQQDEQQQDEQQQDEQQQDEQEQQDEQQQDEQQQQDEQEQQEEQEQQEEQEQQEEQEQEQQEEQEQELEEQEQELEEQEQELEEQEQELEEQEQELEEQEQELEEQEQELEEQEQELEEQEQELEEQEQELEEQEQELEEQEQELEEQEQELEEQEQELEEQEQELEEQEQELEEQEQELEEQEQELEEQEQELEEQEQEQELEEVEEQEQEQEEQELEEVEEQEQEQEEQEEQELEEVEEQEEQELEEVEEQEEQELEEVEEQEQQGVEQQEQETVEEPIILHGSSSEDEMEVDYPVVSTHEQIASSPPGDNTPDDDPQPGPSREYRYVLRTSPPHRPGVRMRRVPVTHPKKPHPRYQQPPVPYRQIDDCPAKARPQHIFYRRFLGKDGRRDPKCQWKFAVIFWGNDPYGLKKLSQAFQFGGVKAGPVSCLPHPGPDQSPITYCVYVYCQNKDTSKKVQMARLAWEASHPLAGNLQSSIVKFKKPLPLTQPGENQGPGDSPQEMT
The experiment in a line: KSHV LANA DNA-binding disruption – biochemical, fluorescence polarization, cherry-picked samples, dose response (AID 504725).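 Note: fluorescence polarization of a labeled DNA duplex reporting LANA DNA binding; potency is for inhibitors that block LANA binding to the DNA.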 The arrangement: species or system Human gammaherpesvirus 8.

Assay [9] concerns the target T6, Insulin-degrading enzyme (Homo sapiens, UniProt P14735).
T6 sequence (P14735 whole entry): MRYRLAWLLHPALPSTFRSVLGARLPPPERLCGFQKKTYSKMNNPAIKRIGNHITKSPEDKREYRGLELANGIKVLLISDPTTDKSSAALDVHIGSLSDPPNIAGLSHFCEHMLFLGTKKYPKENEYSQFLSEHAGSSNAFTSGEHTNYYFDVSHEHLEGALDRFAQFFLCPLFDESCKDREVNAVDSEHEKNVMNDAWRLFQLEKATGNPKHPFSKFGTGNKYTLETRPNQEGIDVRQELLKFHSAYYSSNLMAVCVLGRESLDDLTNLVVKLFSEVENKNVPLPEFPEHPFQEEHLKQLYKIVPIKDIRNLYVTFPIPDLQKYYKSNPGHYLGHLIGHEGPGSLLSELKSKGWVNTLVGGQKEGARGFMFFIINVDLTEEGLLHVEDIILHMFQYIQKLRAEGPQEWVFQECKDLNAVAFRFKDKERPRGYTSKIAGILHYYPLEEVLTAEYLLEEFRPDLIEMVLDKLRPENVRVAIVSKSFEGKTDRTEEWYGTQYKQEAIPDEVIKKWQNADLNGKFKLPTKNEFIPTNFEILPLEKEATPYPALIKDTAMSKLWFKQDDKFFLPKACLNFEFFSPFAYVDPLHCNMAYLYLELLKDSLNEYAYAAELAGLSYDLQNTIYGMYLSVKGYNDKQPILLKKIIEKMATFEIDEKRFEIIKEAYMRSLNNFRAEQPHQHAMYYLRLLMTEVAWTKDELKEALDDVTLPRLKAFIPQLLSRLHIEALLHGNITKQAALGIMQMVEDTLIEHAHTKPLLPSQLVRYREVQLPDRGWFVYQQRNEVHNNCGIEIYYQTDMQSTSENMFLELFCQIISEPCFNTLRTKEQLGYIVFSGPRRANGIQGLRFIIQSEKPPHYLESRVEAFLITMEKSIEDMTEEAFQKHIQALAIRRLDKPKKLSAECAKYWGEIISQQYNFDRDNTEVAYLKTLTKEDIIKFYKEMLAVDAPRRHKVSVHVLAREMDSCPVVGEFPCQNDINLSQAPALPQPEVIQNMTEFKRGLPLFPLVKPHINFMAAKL
The assay is described as follows: recombinant IDE activation, cell-free – biochemical, fluorescence polarization, counter-screen for IDE activator project, dose response (AID 588681).

Assay [10] deals with T6, Insulin-degrading enzyme. The assay is described as follows: cellular IDE activation of Abeta substrate cleavage – fluorescence polarization, HEK cells, dose response (AID 588439). It counts as functional, cell-based.
The test system of a further assay is HeLa. The experiment in a line: viability loss in HeLa cells – cell-based, 24 h, cherry-picked samples, cytotoxicity control, dose response (AID 504726).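 Note: potency for cytotoxicity as loss of luminescence signal.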 It counts as functional. To be noted: Homo sapiens.
Assay [11] can be described thus: viability loss in HeLa cells – cytotoxicity control for MgcRacGAP inhibitor project, dose response (AID 624300). It counts as functional.
Assay [12] concerns the target T7, Rac GTPase-activating protein 1 (Homo sapiens, UniProt Q9H0H5).
T7 sequence (Q9H0H5 whole entry): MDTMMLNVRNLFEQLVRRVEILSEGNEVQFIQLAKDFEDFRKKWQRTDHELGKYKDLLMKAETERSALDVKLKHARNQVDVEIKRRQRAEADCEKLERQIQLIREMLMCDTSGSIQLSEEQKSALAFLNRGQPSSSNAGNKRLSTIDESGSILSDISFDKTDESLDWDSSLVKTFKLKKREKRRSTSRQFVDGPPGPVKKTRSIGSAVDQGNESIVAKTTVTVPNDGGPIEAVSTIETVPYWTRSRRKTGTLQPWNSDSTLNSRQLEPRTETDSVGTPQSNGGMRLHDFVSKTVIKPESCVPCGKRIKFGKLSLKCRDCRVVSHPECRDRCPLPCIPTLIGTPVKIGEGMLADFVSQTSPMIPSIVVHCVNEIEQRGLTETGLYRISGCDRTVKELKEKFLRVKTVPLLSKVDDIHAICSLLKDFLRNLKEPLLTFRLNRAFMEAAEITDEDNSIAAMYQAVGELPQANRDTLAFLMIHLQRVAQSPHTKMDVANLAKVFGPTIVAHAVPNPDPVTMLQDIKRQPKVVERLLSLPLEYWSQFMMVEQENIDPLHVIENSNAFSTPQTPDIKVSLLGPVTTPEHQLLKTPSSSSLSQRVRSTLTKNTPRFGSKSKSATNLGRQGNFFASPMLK
The experiment in a line: blockers of MgcRacGAP-driven Rac1 GTP hydrolysis – biochemical, ADP Hunter fluorescence, primary and confirmatory, confirmation (AID 624330). It counts as functional.

The test system of assay [13] is HEK293. The assay is described as follows: membrane integrity loss in HEK cells – cell-based, fluorescence, cytotoxicity control for IDE activator project, dose response (AID 588440).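 Note: cytotoxicity by LDH release measuring loss of membrane integrity.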 It counts as functional. To be noted: Homo sapiens.
Assay [14] relates to HEK293. The assay is described as follows: optical interference in Abeta FP readout, dose response, artefact control for IDE activator project, biochemical, fluorescence polarization (AID 588442). It counts as functional, cell-based. To be noted: Homo sapiens.
The next assay deals with Nonstructural protein 1 (Influenza A virus, UniProt Q194T2). The assay is classed as functional, Influenza A virus (A/California/07/2009(H1N1)).
Chain of Nonstructural protein 1 (Q194T2 whole entry): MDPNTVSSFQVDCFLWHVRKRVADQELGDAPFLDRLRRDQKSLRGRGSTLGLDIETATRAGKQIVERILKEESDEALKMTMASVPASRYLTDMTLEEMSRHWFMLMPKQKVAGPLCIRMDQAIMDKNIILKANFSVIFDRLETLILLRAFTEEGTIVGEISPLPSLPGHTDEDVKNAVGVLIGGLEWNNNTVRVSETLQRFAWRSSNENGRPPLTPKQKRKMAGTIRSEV

Structures are written as SMILES. The source made the active and inactive calls.

The AC50 is the midpoint of the concentration-response curve, whichever way the signal moves. As a reminder, the IC50 is the concentration that gives 50% inhibition. The term EC50 denotes the concentration at which the effect is half-maximal. One may read the CC50 as the concentration giving 50% cytotoxicity.

As to `CCCn1c(O)c(N=NC(=O)CNC(=O)Cc2ccc(OC)cc2)c2ccccc21`, the AC50 at CAAX prenyl protease 2 was > 100 µM (inactive).
Take `C=CCOc1ccc(NC(=O)C(=O)NCCCn2ccnc2)cc1`: the IC50 in assay [1] was > 80 µM (inactive).
In the case of `COc1cccc(/C=C2\SC(=S)N(CCCC(=O)NC3=NCCS3)C2=O)c1`, the EC50 in assay [2] was 11.8 µM (active); in assay [3], 14 µM (active); in assay [4], 13.2 µM (active); in assay [5], > 300 µM (not active); in assay [6], > 300 µM (not active). For the same compound, the IC50 in assay [1] is > 80 µM (inactive).
With `Cc1c(C(=O)O)nnn1-c1ccc(F)cc1`, the IC50 in [7] was > 100 µM (inactive); in [8], > 100 µM (not active).
Consider `Nc1ccc2c3[nH]c4cc(N)ccc4cc-3nc2c1`, for which the values for the AC50 at ORF 73 and in the assay on HeLa were 0.758 µM (active) and 7.72 µM (active), respectively. Further, the EC50 on Insulin-degrading enzyme [9], at Insulin-degrading enzyme [10] and in the assay with HEK293 [14] was > 54.7 µM (inactive) in each case. For the same compound, the CC50 in [11] is 8.81 µM (active). The half-inhibitory concentration (IC50) is 44.7 µM (active) in assay [12], > 89.2 µM (inactive) in the assay with HEK293 [13] and 21.1 µM (active) at Nonstructural protein 1.
